According to patent publication US20080234384A1, “BIARYL AND BIHETEROARYL COMPOUNDS USEFUL IN TREATING IRON DISORDERS” (XENON PHARMACEUTICALS INC., priority 2007, published 2008):
Where a name gives a salt, the structure may show the parent alone.

Biological target: T1, DMT1 (Homo sapiens, UniProt P49281)
T1 sequence (P49281 1-568): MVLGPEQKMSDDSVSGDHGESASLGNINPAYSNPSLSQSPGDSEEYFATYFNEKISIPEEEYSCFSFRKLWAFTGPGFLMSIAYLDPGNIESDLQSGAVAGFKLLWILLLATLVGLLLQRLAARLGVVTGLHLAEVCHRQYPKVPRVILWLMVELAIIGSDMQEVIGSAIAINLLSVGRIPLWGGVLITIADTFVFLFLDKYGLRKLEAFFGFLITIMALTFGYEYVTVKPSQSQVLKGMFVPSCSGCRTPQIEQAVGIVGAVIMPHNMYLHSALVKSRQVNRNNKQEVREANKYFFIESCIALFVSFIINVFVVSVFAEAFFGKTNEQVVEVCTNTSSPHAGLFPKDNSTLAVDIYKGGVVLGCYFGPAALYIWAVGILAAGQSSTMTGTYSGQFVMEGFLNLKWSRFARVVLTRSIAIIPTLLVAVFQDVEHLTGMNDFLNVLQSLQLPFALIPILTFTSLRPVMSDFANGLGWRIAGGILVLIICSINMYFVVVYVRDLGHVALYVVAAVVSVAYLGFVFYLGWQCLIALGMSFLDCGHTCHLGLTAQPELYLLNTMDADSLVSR
Test: DMT1 Activity Assay (In Vitro Assay)
Format: cell-based
Details: read-out: IC50 Activity Level
From the text: In particular, identification of the compounds of the invention ability to modulate, preferably to inhibit, DMT1 activity, can be assessed using a variety of in vitro and in vivo assays, for measuring uptake of reduced iron (Fe^2+). One such protocol involves the screening of chemical agents for ability to modulate the activity of DMT1 thereby identifying it as a modulating agent. The in vitro activity of DMT1 can be measured in cell based assays by either directly measuring iron flux (using a radioactively labelled iron ^55Fe) or by measuring the fluorescence of a cell permeable iron fluorophore such as calcein. Stable cell lines overexpressing DMT1 are exposed to ^55Fe or loaded with calcein and then compound is applied. […] Alternatively, in another format electrophysiological techniques can be used to measure the current or iron or other metals traversing the cell membrane with DMT1 in a Xenopus oocyte or other cell based system (Gunshin et al., Nature, 1997, 31; 388(6641):482-8).
This example discloses various in vitro assay for testing and profiling test agents against DMT1 stably expressed in cells of either an endogenous or recombinant origin. These assays can use stable cell lines overexpressing DMT1 or intestinal cells and intestinal tissue expressing endogenous DMT1. DMT1 function could also be assessed in other cell types that express DMT1. Of greatest relevance would be the erythrocytes (e.g. K562 cells) or hepatocytes (e.g. […]).
DMT1 function can be assessed in a number of ways, including monitoring fluorescence changes of an iron fluorophore (e.g. calcein), monitoring uptake of radiolabelled iron (55Fe or ^59Fe) (Picard et al., J. Biol. Chem., 2000, 275(46):35738-45 and Wetli et al., Chem. Biol. 2006 September; 13(9):965-72), or by assessing the current or transport of iron and other metals into the cells or tissues using standard electrophysiological techniques (Gunshin et al., Nature, 1997, 388(6641):482-8.).
Variations of these assays involve alterations of incubation times, the iron status of the cells and tissues (which may be modulated by chemical chelators or by harvesting from iron deficient animals), the metal cation detected and the pH of the reaction can generally be made by conventional techniques known to those skilled in the art.

IC50 [µM] | SMILES
≥ 1 | CC(SC(=N)N)c1ccccc1Oc1ccccc1C(C)SC(=N)N (stereo not shown) [Example 1, 2-(1-{2-[2-(1-carbamimidoylsulfanylethyl)phenoxy]phenyl}ethyl)-isothiourea dihydrobromide]
0.1 to 1 | N=C(N)SCc1ccccc1Sc1ccccc1CSC(=N)N [Example 1.1, 2-[2-(2-carbamimidoylsulfanylmethylphenylsulfanyl)benzyl]isothiourea dihydrobromide]
0.1 to 1 | N=C(N)SCc1ccccc1Sc1ccc(F)cc1CSC(=N)N [Example 1.2, 2-[2-(2-carbamimidoylsulfanylmethyl-4-fluorophenylsulfanyl)benzyl]-isothiourea dihydrobromide]
≥ 1 | Cc1ccc(CSC(=N)N)c(Sc2ccccc2CSC(=N)N)c1 [Example 1.3, 2-[2-(2-carbamimidoylsulfanylmethyl-5-methylphenylsulfanyl)-benzyl]isothiourea dihydrobromide]
≥ 1 | COc1ccc(Sc2ccccc2CSC(=N)N)c(CSC(=N)N)c1 [Example 1.4, 2-[2-(2-carbamimidoylsulfanylmethyl-4-methoxyphenylsulfanyl)-benzyl]isothiourea dihydrobromide]
≥ 1 | Cc1ccc(CSC(=N)N)c(Sc2ccc(F)cc2CSC(=N)N)c1 [Example 1.5, 2-[2-(2-carbamimidoylsulfanylmethyl-5-methylphenylsulfanyl)-5-fluorobenzyl]isothiourea dihydrobromide]
0.1 to 1 | COc1ccc(Sc2ccc(F)cc2CSC(=N)N)c(CSC(=N)N)c1 [Example 1.6, 2-[2-(2-carbamimidoylsulfanylmethyl-4-methoxyphenylsulfanyl)-5-fluorobenzyl]isothiourea dihydrobromide]
0.1 to 1 | N=C(N)SCc1cc(F)ccc1Sc1cc(Cl)ccc1CSC(=N)N [Example 1.7, 2-[2-(2-carbamimidoylsulfanylmethyl-5-chloro-phenylsulfanyl)-5-fluoro-benzyl]-isothiourea dihydrobromide]
≥ 1 | Cc1cccc(CSC(=N)N)c1Sc1ccccc1CSC(=N)N [Example 1.8, 2-[2-(2-carbamimidoylsulfanylmethyl-6-methylphenylsulfanyl)-benzyl]isothiourea dihydrobromide]
0.1 to 1 | N=C(N)SCc1ccccc1Sc1cc(F)c(F)cc1CSC(=N)N [Example 1.9, 2-[2-(2-carbamimidoylsulfanylmethyl-4,5-difluorophenylsulfanyl)-benzyl]isothiourea dihydrobromide]
0.1 to 1 | Cc1ccc(Sc2ccccc2CSC(=N)N)c(CSC(=N)N)c1 [Example 1.10, 2-[2-(2-carbamimidoylsulfanylmethyl-4-methylphenylsulfanyl)-benzyl]isothiourea dihydrobromide]
0.1 to 1 | N=C(N)SCc1ccccc1Sc1cc(Cl)ccc1CSC(=N)N [Example 1.11, 2-[2-(2-carbamimidoylsulfanylmethyl-5-chlorophenylsulfanyl)-benzyl]isothiourea dihydrobromide]
0.1 to 1 | N=C(N)SCc1ccccc1Sc1cc(F)ccc1CSC(=N)N [Example 1.12, 2-[2-(2-carbamimidoylsulfanylmethyl-5-fluorophenylsulfanyl)benzyl]-isothiourea dihydrobromide]
≥ 1 | N=C(N)SCc1ccccc1Sc1ccc2ccccc2c1CSC(=N)N [Example 1.13, 2-[2-(1-carbamimidoylsulfanylmethylnaphthalen-2-ylsulfanyl)benzyl]-isothiourea dihydrobromide]
≥ 1 | N=C(N)SCc1cc(F)ccc1Sc1ccc2ccccc2c1CSC(=N)N [Example 1.14, 2-[2-(1-carbamimidoylsulfanylmethylnaphthalen-2-ylsulfanyl)-5-fluorobenzyl]isothiourea dihydrobromide]
0.1 to 1 | N=C(N)SCc1cc(F)ccc1Sc1cc(F)ccc1CSC(=N)N [Example 1.15, 2-[2-(2-carbamimidoylsulfanylmethyl-5-fluorophenylsulfanyl)-5-fluorobenzyl]isothiourea dihydrobromide]

IC50 [µM] | SMILES
0.1 to 1 | N=C(N)SCc1cc(F)ccc1Sc1cc(F)c(F)cc1CSC(=N)N [Example 1.16, 2-[2-(2-carbamimidoylsulfanylmethyl-4,5-difluorophenylsulfanyl)-5-fluorobenzyl]isothiourea dihydrobromide]
≥ 1 | N=C(N)SCc1cc(F)ccc1Sc1c(CSC(=N)N)cccc1[N+](=O)[O-] [Example 1.17, 2-[2-(2-carbamimidoylsulfanylmethyl-4-fluorophenylsulfanyl)-3-nitrobenzyl]isothiourea dihydrobromide]
≥ 1 | N=C(N)SCc1cc(F)ccc1Sc1ccc(C(F)(F)F)cc1CSC(=N)N [Example 1.18, 2-[2-(2-carbamimidoylsulfanylmethyl-4-fluorophenylsulfanyl)-5-(trifluoromethyl)benzyl]isothiourea dihydrobromide]
0.1 to 1 | N=C(N)SCc1ccccc1Sc1ccc(N)cc1CSC(=N)N [Example 1.19, 2-[2-(2-carbamimidoylsulfanylmethylphenylsulfanyl)-5-aminobenzyl]-isothiourea trihydrobromide]
0.1 to 1 | N=C(N)SCc1cc(F)ccc1Sc1ccc(Cl)cc1CSC(=N)N [Example 1.20, 2-[2-(2-carbamimidoylsulfanylmethyl-4-chlorophenylsulfanyl)-5-fluorobenzyl]isothiourea dihydrobromide]
≥ 1 | CCNc1ccc(Sc2ccccc2CSC(=N)N)c(CSC(=N)N)c1 [Example 1.21, 2-[2-(2-carbamimidoylsulfanylmethylphenylsulfanyl)-5-ethylaminobenzyl]isothiourea trihydrobromide]
≥ 1 | N=C(N)SCc1cc(Cl)ccc1Sc1ccc(Cl)cc1CSC(=N)N [Example 1.22, 2-[2-(2-carbamimidoylsulfanylmethyl-4-chlorophenylsulfanyl)-5-chlorobenzyl]isothiourea dihydrobromide]
0.1 to 1 | N=C(N)SCCc1cc(F)ccc1Sc1ccc(F)cc1CSC(=N)N [Example 1.23, 2-[2-(2-carbamimidoylsulfanylethyl-4-fluorophenylsulfanyl)-5-fluorobenzyl]isothiourea dihydrobromide]
0.1 to 1 | N=C(N)SCCc1cc(Cl)ccc1Sc1ccc(F)cc1CSC(=N)N [Example 1.24, 2-[2-(2-carbamimidoylsulfanylethyl-4-chlorophenylsulfanyl)-5-fluorobenzyl]isothiourea dihydrobromide]
≥ 1 | N=C(N)SCCc1ccccc1Sc1ccccc1CSC(=N)N [Example 1.25, 2-[2-(2-carbamimidoylsulfanylethylphenylsulfanyl)benzyl]isothiourea dihydrobromide]
0.1 to 1 | N=C(N)SCc1ccccc1Sc1ccc(Cl)cc1CSC(=N)N [Example 1.26, 2-[2-(2-carbamimidoylsulfanylmethylphenylsulfanyl)-5-chlorobenzyl]-isothiourea dihydrobromide]
≥ 1 | N=C(N)SCc1ccccc1Sc1ccc(C(F)(F)F)cc1CSC(=N)N [Example 1.27, 2-[2-(2-carbamimidoylsulfanylmethylphenylsulfanyl)-5-(trifluoromethyl)benzyl]isothiourea dihydrobromide]
0.1 to 1 | CN(c1ccccc1CSC(=N)N)c1ccccc1CSC(=N)N [Example 1.28, 2,2′-(methylazanediyl)bis(2,1-phenylene)bis-(methylene)dicarbamimidothioate trihydrobromide]
≥ 1 | CNC(=N)SCc1ccccc1Sc1ccccc1CSC(=N)NC [Example 1.29, 2-[2-(2-methylcarbamimidoylsulfanylmethylphenylsulfanyl)benzyl]-methylisothiourea dihydrobromide]
0.1 to 1 | CS(=O)(=O)c1ccc(Sc2ccc(F)cc2CSC(=N)N)c(CSC(=N)N)c1 [Example 1.30, 2-[2-(2-carbamimidoylsulfanylmethyl-4-fluorophenylsulfanyl)-5-(methylsulfonyl)benzyl]isothiourea dihydrobromide]
